“And” between values parts separate entries of the source, which are not always exact repeats. Equal values may be shown once. The source made the active and inactive calls.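 The calls were made as follows: active = fitted curve reaches a 40% rise in fluorescent cells at or below the top valid dose; inactive = opposite-direction effect, or the rest.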
Tested on: mTEFS fibroblasts autofluorescence, GFP-channel imaging, 3 days
Assay: autofluorescent compounds in non-GFP fibroblasts, dose response, artefact control for X-chromosome reactivation project, imaging, mTEFS fibroblasts, cherry-pick (AID 743396)
Conditions: cells pretreated with 5-aza-dC

| Structure (SMILES) | AC40 |
| --- | --- |
| Cc1n[nH]c(=S)n(/N=C/c2cccc([N+](=O)[O-])c2)c1=O | > 19.5 µM (inactive) |
| C=CCN1C(=O)[C@@H]2Cc3c([nH]c4ccccc34)C(c3cc(OC)c(OC)c(OC)c3)N2C1=S (stereo partly drawn) | 15.5 µM |
| CC1=NN(c2nc(N)nc(/C(C#N)=C/c3ccc([N+](=O)[O-])o3)n2)C(C)(C)C1 | 4.78 µM |
| C/C(=N\Nc1ncnc2sc(C)c(C)c12)c1ccccn1 | 1.55 µM |
| COc1ccccc1N1N=C(c2ccc([N+](=O)[O-])cc2)CC1c1ccccc1 (stereo not drawn) | 5.77 µM |
| Oc1ccc(/C=N/Nc2ccnc3cc(Cl)ccc23)c(O)c1 | > 19.5 µM (inactive) |
| Cc1ccc2c(c1)c(/C=C/c1cc[n+](C)cc1)c(C)n2C | 10.1 µM |
| C[C@H]1CN([C@@H](C)CO)S(=O)(=O)c2ccc(Br)cc2O[C@H]1CN(C)C(=O)c1cccnc1 | > 6.8 µM (inactive) |
| O=[N+]([O-])c1ccc(C2=NN(c3ccccc3)C(c3ccco3)C2)cc1 (stereo not drawn) | 2.59 µM |
| Nc1c(C(=O)c2cccs2)sc2nsc(SCCN3CCCCC3)c12 | 2.03 µM |
| CCc1cccc2cc3c(N)c(C(=O)Nc4ccc(S(=O)(=O)N5CCCC5)cc4)sc3nc12 | 7.09 µM |
| CN(C)CCCN1C(=O)c2cccc3c([N+](=O)[O-])ccc(c23)C1=O | > 19.5 µM (inactive) |
| COc1cc(N2CCCC2)c(OC)cc1/C=C1/NC(=S)NC1=O | > 19.5 µM (inactive) |
| CCN1CCc2c(sc(NC(=O)c3ccc4ccccc4c3)c2C(N)=O)C1 | 3.45 µM |
| NC(=O)c1c(NC(=O)c2ccccc2)sc2c1CCN(Cc1ccccc1)C2 | > 19.5 µM (inactive) |
| CC(=O)Nc1cc2c3c(cccc3c1)-c1ccccc1-2 | 2.19 µM |
| N#C/C(=C/c1ccc(-c2ccc(S(N)(=O)=O)cc2)o1)c1nc2ccccc2s1 | 2.25 µM |
| Cn1c(=O)[nH]c(=O)c2c1nc(SCCN1CCOCC1)n2CCCc1ccccc1 | 10.9 µM |
| COc1cc2c3nnc(-c4ccc(F)cc4)c-3cn(Cc3ccccc3)c2cc1OC | 3.67 µM |
| N#C/C(=C/c1ccc(-c2ccccc2)o1)c1nc(-c2cccs2)cs1 | 7.35 µM |
| N#CC(C#N)=C1C=C2C=C(N3CCCCCC3)CCC2CC1 (stereo not drawn) | 6.6 µM |
| COc1ccc(Cn2cc3c(-c4ccc(F)cc4)nnc-3c3cc(OC)c(OC)cc32)cc1 | 6.18 µM |
| Cc1ccc2cc3c(N)c(C(=O)Nc4c(C)[nH]c(=O)[nH]c4=O)sc3nc2c1 | > 19.5 µM (inactive) |
| CCN1/C(=C/C=C/c2oc3ccc(-c4ccccc4)cc3[n+]2CC)Oc2ccc(-c3ccccc3)cc21 | 0.00627 µM |

| Structure (SMILES) | AC40 |
| --- | --- |
| CCCN1C(=O)S/C(=C\c2ccc(N3CCOCC3)o2)C1=O | > 19.5 µM (inactive) |
| Cc1ccc(-c2cn3nc(-c4ccccc4)c(-c4ccccc4)nc3n2)cc1 | 7.88 µM |
| COc1ccc(CCNC(=O)c2ccc([N+](=O)[O-])cc2)cc1 | 18.8 µM |
| CCOC(=O)/C=c1\s/c(=C\c2ccc3cc(OC)ccc3c2)c(=O)n1CC(=O)NCc1ccc2c(c1)OCO2 | 4.43 µM |
| CCN(CC)c1ccc(/C=C/c2cc(-c3ccccc3)c3ccccc3n2)cc1 | 12.8 µM |
| O=c1[nH]c(=O)n([C@H]2C[C@H](O)[C@@H](CO)O2)cc1C(F)(F)F | > 19.5 µM (inactive) |
| CCOC(=O)Cn1c(=O)c(-c2cc(Br)ccc2N)nc2ccccc21 | > 19.5 µM (inactive) |
| CCN(CC)c1ccc(/C=C(/C#N)C(=O)NCc2ccccc2)o1 | 5.55 µM |
| COc1cc2c3nnc(-c4ccc(F)cc4)c-3cn(Cc3cccc(C)c3)c2cc1OC | 3.63 µM |
| CN1CCc2c(sc(NC(=O)c3ccc(S(=O)(=O)N4CCc5ccccc54)cc3)c2C(N)=O)C1 | 18 µM |
| CC(C)CCN1C(=O)c2cccc3c(N)ccc(c23)C1=O | 5.86 µM |
| CC(=O)Oc1cccc(N2C(=O)c3cccc4c([N+](=O)[O-])ccc(c34)C2=O)c1 | > 19.5 µM (inactive) |
| O=C(NCc1ccccc1)c1cccc2c1C(=O)c1ccc(/C=C/c3ccccc3)cc1S2(=O)=O | 15 µM |
| COc1cc2c3nnc(-c4ccccc4)c-3cn(Cc3ccccc3F)c2cc1OC | 4.02 µM |
| Cc1ccc(NC(=O)/C=C/c2ccc([N+](=O)[O-])s2)cc1 | 4.44 µM |
| Cc1ccc(Cl)c2c(N=Nc3ccccc3)c(O)[nH]c12 | > 19.5 µM (inactive) |
| CN(C)S(=O)(=O)c1ccc2c(c1)/C(=C/c1cc3c([nH]1)CCCC3)C(=O)N2 | 3.17 µM |
| Nc1c(C(=O)Nc2ccc(S(=O)(=O)N3CCCC3)cc2)sc2nc3cc4c(cc3cc12)CCC4 | 10.6 µM |
| Cc1cc(N/N=C/c2ccc([N+](=O)[O-])o2)nc2ccccc12 | 13.8 µM |
| Cc1cc(C)cc(NC(=O)/C=C/c2ccc([N+](=O)[O-])s2)c1 | 9.04 µM |
| CN1/C(=C/C=C(C#N)C#N)C(C)(C)c2ccccc21 | 19.4 µM |
| C/C(CC(=O)Nc1ccc(C)c(Cl)c1)=N\NC(=O)Cc1ccccc1 | 18.1 µM |
| O=C(NC1CCCC1)c1cccc2c1C(=O)c1ccc(/C=C/c3ccccc3)cc1S2(=O)=O | > 19.5 µM (inactive) |
| N#C/C(=C\c1ccc([N+](=O)[O-])o1)c1nc2ccccc2[nH]1 | > 19.5 µM (inactive) |

| Structure (SMILES) | AC40 |
| --- | --- |
| COC(=O)C1=C(C)NC(C)=C(C(=O)OC)C1C(=O)OCC(=O)c1ccc(F)cc1 | > 19.5 µM (inactive) |
| Cc1ccccc1-c1ccc(C2[C@@H]3CN(Cc4cocn4)C[C@H]2N3)cc1 (stereo partly drawn) | > 2.35 µM (inactive) |
| COc1ccc(-[n+]2c(C)cc(/C=C3\Sc4ccccc4N3C)cc2C)cc1 | 1.58 µM |
| C[C@@H]1CCCCO[C@H](CN(C)C(=O)Nc2ccc(C(F)(F)F)cc2)[C@H](C)CN([C@H](C)CO)C(=O)c2cc(NC(=O)CCC(F)(F)F)ccc2O1 | 17.4 µM |
| COc1ccc(N2CCN(C(=O)c3cc4c(s3)-c3ccccc3OC4)CC2)cc1 | > 19.5 µM (inactive) |
| O=[N+]([O-])c1ccc(N/N=C/c2ccc[nH]2)cc1 | > 19.5 µM (inactive) |
| Cc1cccc(-c2cccc3[nH]c4c(c23)CCN2C(=O)[C@H]3[C@H](C)ON(C)[C@H]3C[C@@H]42)c1 | 14.7 µM |
| COc1ccc2c(n1)Sc1nc3ccccc3nc1N2 | 12.5 µM |
| CC[n+]1c(/C=C/C=C/N(C(C)=O)c2ccccc2)sc2cc(OC)ccc21 | 2.73 µM |
| COc1cc2c3nnc(-c4ccc(F)cc4)c-3cn(Cc3ccccc3F)c2cc1OC | 2.46 µM |
| Cc1cccc(NC(=O)/C=C/c2ccc([N+](=O)[O-])s2)c1 | 3.68 µM |
| CCOC(=O)C1=C(O)/C(=C/c2cc(OC)c(O)c(OC)c2)SC1=Nc1ccc(OC)cc1 | > 19.5 µM (inactive) |
| N#C/C(=C/c1ccc(N2CCCCC2)o1)C(=O)Nc1ccc2ccccc2c1 | 1.53 µM |
| CCCCN(C)C1=CC2=CC(=C(C#N)C#N)CCC2CC1 (stereo not drawn) | 3.44 µM |
| CC1CN(C(=O)/C=C/c2ccc([N+](=O)[O-])s2)CC(C)O1 (stereo not drawn) | 10.6 µM |
| O=[N+]([O-])c1ccc(N2N=C(c3ccccc3)CC2c2ccccc2O)cc1 (stereo not drawn) | 14.1 µM |
| O=C(N/N=C\c1c(O)ccc2ccccc12)c1ccc(S(=O)(=O)N2CCCCC2)cc1 | 19.2 µM |
| O=C1c2ccccc2C(=O)C1c1ccccc1 | > 19.5 µM (inactive) |
| c1ccc(-c2cnn3c(-c4ccccc4)c(-c4ccccc4)nc3n2)cc1 | 2.58 µM |
| O=S(=O)(Nc1cc2nc3ccccc3nc2n1Cc1ccccc1)c1ccc(Cl)cc1 | > 19.5 µM (inactive) |
| CCN1C(=O)[C@@H]2Cc3c([nH]c4ccccc34)C(c3cc(OC)c(OC)c(OC)c3)N2C1=S (stereo partly drawn) | > 19.5 µM (inactive) |
| COC1=CC(=O)c2nc(Cl)ccc2C1=O | 18.5 µM |
| Nc1[nH]c2cc([N+](=O)[O-])ccc2c1-c1ccccn1 | 8.95 µM |
| O=[N+]([O-])c1ccc(N/N=C/c2sc(N3CCOCC3)nc2-c2ccccc2)c(S(=O)(=O)Nc2ccc(Cl)cc2)c1 | > 6.8 µM (inactive) |

| Structure (SMILES) | AC40 |
| --- | --- |
| COc1ccc(C(=O)c2sc3nc(C)cc(-c4cccs4)c3c2N)cc1OC | 16.3 µM |
| COc1cccc(C(=O)c2c(-c3ccccc3)ncc3cc(OC)c(OC)cc23)c1 | 19.4 µM |
| Cc1cccc2cc3c(N)c(C(=O)N4CCc5ccccc54)sc3nc12 | 10.5 µM |
| Nc1c(Br)cc2c3c(cccc13)-c1ccccc1-2 | > 19.5 µM (inactive) |
| CC(=NNc1nc2ccccc2o1)c1cc2ccccc2cn1 | 8.99 µM |
| Cn1cc(C2=C(c3ccc(Cl)cc3Cl)C(=O)NC2=O)c2ccccc21 | 12.7 µM |
| Nc1ccc2c3c(cccc13)-c1ccccc1-2 | 1.49 µM |
| CCN1/C(=C/c2ccc3cc(C)ccc3[n+]2CC)Sc2ccccc21 | 0.395 µM |
| Cc1ccc(NC(=O)/C=C/c2ccc([N+](=O)[O-])s2)c(C)c1 | 7.81 µM |
| CCN1CCc2c(sc(NC(=O)Nc3ccc(Cl)c(Cl)c3)c2C(N)=O)C1 | 0.558 µM |
| N#C/C(=C\c1ccc(N2CCCCC2)o1)C(=O)Nc1cccc(Br)c1 | 0.919 µM |
| CC(O)CN(CC(C)O)c1ccc2c(c1)Cc1cc([N+](=O)[O-])ccc1-2 (stereo not drawn) | > 19.5 µM (inactive) |
| CC(=O)Nc1sc(/C(C#N)=C/c2ccc(Cl)c(Cl)c2)nc1-c1ccc(C)cc1 | 3.55 µM |
| Nc1c(C(=O)c2ccccc2)sc2nsc(SCCN3CCCC3)c12 | 10.5 µM |
| CCN1/C(=C\c2ccc3cc(C)ccc3[n+]2CC)Sc2cc(C)c(C)cc21 | 15.7 µM |
| C[n+]1c2cc(N)ccc2cc2ccc(N)cc21 | 0.522 µM and 0.378 µM |
| O=CNc1ccc2c3c(cccc13)-c1ccccc1-2 | 8.57 µM |
| Cc1c2c(cc3c1[nH]c1ccccc13)C=NCC2 | 15.8 µM |
| Cc1[nH]c2ccccc2c1/C=N/Nc1ccc([N+](=O)[O-])cc1 | 12.2 µM |
| CCCCNc1ccc2c3c(cccc13)C(=O)N(CCCC)C2=O | 4.11 µM |
| CCN(CC)C1=CC2=CC(=C(C#N)C#N)CCC2CC1 (stereo not drawn) | > 19.5 µM (inactive) |

Reference: PubChem BioAssay AID743396 (Broad Institute, 2014)
